How the values were obtained:
[1] = biological target: PRMT5/MEP50 (Homo sapiens (Human), UniProt O14744); assay: PRMT5 Biochemical Assay (PRMT5/MEP50 enzyme assay on peptide substrate, 3H-SAM Flashplate); conditions: PRMT5/MEP50 4 nM, 3H-SAM 75 nM, peptide 40 nM
Description: S-adenosylmethionine (SAM), S-adenosylhomocysteine (SAH), bicine, KCl, Tween20, dimethylsulfoxide (DMSO), bovine skin gelatin (BSG), and Tris(2-carboxyethyl)phosphine hydrochloride solution (TCEP) were purchased from Sigma-Aldrich at the highest level of purity possible. ^3H-SAM was purchase from American Radiolabeled Chemicals with a specific activity of 80 Ci/mmol. 384-well streptavidin Flashplates were purchased from PerkinElmer.
Peptide representative of human histone H4 residues 1-15 was synthesized with a C-terminal linker-affinity tag motif and a C-terminal amide cap by 21st Century Biochemicals. The peptide was high high-performance liquid chromatography (HPLC) purified to greater than 95% purity and confirmed by liquid chromatography mass spectrometry (LC-MS). The sequence was Ac-[…][K-Biot]-amide (SEQ ID NO.: 3).
Full-length human PRMT5 (NM_006109.3) transcript variant 1 clone was amplified from a fetal brain cDNA library, incorporating flanking 5′ sequence encoding a FLAG tag ([…]) (SEQ ID NO.: 4) fused directly to Ala 2 of PRMT5. Full-length human MEP50 (NM_024102) clone was amplified from a human testis cDNA library incorporating a 5′ sequence encoding a 6-histidine tag (MHHHHHH) (SEQ ID NO.: 5) fused directly to Arg 2 of MEP50. The amplified genes were sublconed into pENTR/D/TEV (Life Technologies) and subsequently transferred by Gateway™ attL x attR recombination to pDEST8 baculvirus expression vector (Life Technologies).
Recombinant baculovirus and Baculovirus-Infected Insect Cells (BIIC) were generated according to Bac-to-Bac kit instructions (Life Technologies) and Wasilko, 2006, respectively. Protein over-expression was accomplished by infecting exponentially growing Spodoptera frugiperda (SF9) cell culture at 1.2×10^6 cell/ml with a 5000 fold dilution of BIIC stock. Infections were carried out at 27° C. for 72 hours, harvested by centrifugation, and stored at −80° C. for purification.
Flag-PRMT5/6His-MeP50 was eluted with 300 mM Imidazole in the same buffer. The purity of recovered protein was 87%. Reference: Wasilko, D. J. and S. E. Lee: “TIPS: titerless infected-cells preservation and scale-up” Bioprocess J., 5 (2006), pp. 29-32.
General Procedure for PRMT5/MEP50 Enzyme Assays on Peptide Substrates.
The assays were all performed in a buffer consisting of 20 mM Bicine (pH=7.6), 1 mM TCEP, 0.005% BSG, and 0.002% Tween20, prepared on the day of use. Compounds in 100% DMSO (1 ul) were spotted into a polypropylene 384-well V-bottom plates (Greiner) using a Platemate Plus outfitted with a 384-channel head (Thermo Scientific). DMSO (1 ul) was added to Columns 11, 12, 23, 24, rows A-H for the maximum signal control and 1 ul of SAH, a known product and inhibitor of PRMT5/MEP50, was added to columns 11, 12, 23, 24, rows I-P for the minimum signal control. A cocktail (40 ul) containing the PRMT5/MEP50 enzyme and the peptide was added by Multidrop Combi (Thermo-Fisher). The compounds were allowed to incubate with PRMT5/MEP50 for 30 min at 25 degrees Celsius, then a cocktail (10 ul) containing ^3H-SAM was added to initiate the reaction (final volume=51 ul). The final concentrations of the components were as follows: PRMT5/MEP50 was 4 nM, ^3H-SAM was 75 nM, peptide was 40 nM, SAH in the minimum signal control wells was 100 uM, and the DMSO concentration was 1%. The assays were stopped by the addition of non-radioactive SAM (10 ul) to a final concentration of 600 uM, which dilutes the ^3H-SAM to a level where its incorporation into the peptide substrate is no longer detectable. 50 ul of the reaction in the 384-well polypropylene plate was then transferred to a 384-well Flashplate and the biotinylated peptides were allowed to bind to the streptavidin surface for at least 1 hour before being washed three times with 0.1% Tween20 in a Biotek ELx405 plate washer. […]

[2] = tested on: Z-138 cells; assay: Z-138 Proliferation Assay (Cell Titer Glo); assay type: cell-based; conditions: 5 days incubation
Description: [formula] Z-138 Proliferation Assay
Z-138 suspension cells were purchased from ATCC (American Type Culture Collection, Manassas, Va.). RPMI/Glutamax medium, penicillin-streptomycin, heat inactivated fetal bovine serum were purchased from Life Technologies, Grand Island, N.Y., USA. V-bottom polypropylene 384-well plates were purchased from Greiner Bio-One, Monroe, N.C., USA. Cell culture 384-well white opaque plates were purchased from Perkin Elmer, Waltham, Mass., USA. Cell-Titer Glo® was purchased from Promega Corporation, Madison, Wis., USA. SpectraMax M5 plate reader was purchased from Molecular Devices LLC, Sunnyvale, Calif., USA.
Z-138 suspension cells were maintained in growth medium (RPMI 1640 supplemented with 10% v/v heat inactivated fetal bovine serum and cultured at 37° C. under 5% CO2. Under assay conditions, cells were incubated in assay medium (RPMI 1640 supplemented with 10% v/v heat inactivated fetal bovine serum and 100 units/mL penicillin-streptomycin) at 37° C. under 5% CO2.
For the assessment of the effect of compounds on the proliferation of the Z-138 cell line, exponentially growing cells were plated in 384-well white opaque plates at a density of 10,000 cells/ml in a final volume of 50 μl of assay medium. A compound source plate was prepared by performing triplicate nine-point 3-fold serial dilutions in DMSO, beginning at 10 mM (final top concentration of compound in the assay was 20 μM and the DMSO was 0.2%). A 100 nL aliquot from the compound stock plate was added to its respective well in the cell plate. […] After addition of compounds, assay plates were incubated for 5 days at 37° C., 5% CO2, relative humidity >90%.
Cell viability was measured by quantitation of ATP present in the cell cultures, adding 35 μl of Cell Titer Glo® reagent to the cell plates. Luminescence was read in the SpectraMax M5 microplate reader. The concentration of compound inhibiting cell viability by 50% was determined using a 4-parametric fit of the normalized dose response curves.

PRMT5/MEP50, sequence (O14744 other isoform, or with tags, fused parts or gaps): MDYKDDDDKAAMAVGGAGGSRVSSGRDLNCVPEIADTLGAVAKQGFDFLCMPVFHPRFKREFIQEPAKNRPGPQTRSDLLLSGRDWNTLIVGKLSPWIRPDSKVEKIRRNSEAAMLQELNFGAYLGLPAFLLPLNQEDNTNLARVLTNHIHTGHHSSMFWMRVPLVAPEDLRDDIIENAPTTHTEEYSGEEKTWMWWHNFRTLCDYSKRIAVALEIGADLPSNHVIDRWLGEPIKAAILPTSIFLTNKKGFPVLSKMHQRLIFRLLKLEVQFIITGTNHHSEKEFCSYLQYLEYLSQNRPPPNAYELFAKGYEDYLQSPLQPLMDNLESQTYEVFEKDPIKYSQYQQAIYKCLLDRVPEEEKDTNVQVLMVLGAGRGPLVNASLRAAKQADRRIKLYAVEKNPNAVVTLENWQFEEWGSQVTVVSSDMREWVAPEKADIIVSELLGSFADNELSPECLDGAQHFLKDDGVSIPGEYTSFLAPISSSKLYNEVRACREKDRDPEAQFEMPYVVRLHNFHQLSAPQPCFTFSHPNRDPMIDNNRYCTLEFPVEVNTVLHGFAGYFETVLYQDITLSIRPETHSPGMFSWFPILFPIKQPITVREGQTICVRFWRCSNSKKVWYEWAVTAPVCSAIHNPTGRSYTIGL
PRMT5/MEP50, sequence (Q9BQA1 other isoform, or with tags, fused parts or gaps partner): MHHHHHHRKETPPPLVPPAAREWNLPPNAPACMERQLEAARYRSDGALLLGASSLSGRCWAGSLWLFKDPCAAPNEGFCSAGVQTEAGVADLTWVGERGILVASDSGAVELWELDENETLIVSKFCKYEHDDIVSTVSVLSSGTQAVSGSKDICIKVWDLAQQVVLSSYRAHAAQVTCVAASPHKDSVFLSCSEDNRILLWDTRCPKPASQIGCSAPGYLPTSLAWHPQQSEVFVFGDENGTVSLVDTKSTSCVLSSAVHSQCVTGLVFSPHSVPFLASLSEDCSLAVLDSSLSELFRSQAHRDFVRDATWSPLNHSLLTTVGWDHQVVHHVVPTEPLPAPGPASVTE

IC50 [1] [µM]	Compound	EC50 ([2]; Homo sapiens, 120 h) [µM]	EC50 [2] [µM]
> 10	CC(=O)N1CCC(Nc2cc(C(=O)NC[C@H](O)CN3CCc4ccccc43)ccn2)CC1 [compound 44]	> 5	
> 10	CC(=O)N1CC(Nc2cc(C(=O)NC[C@H](O)CN3CCCCc4ccccc43)ncn2)C1 [compound 46]	> 5	
1 to 10	CC(=O)N1CC(Nc2cc(C(=O)NC[C@H](O)CN3CCCc4ccccc4C3)ncn2)C1 [compound 49]	> 5	
> 10	O=C(NC[C@H](O)CN1CCCc2ccccc2C1)c1cc(NC2COC2)ncn1 [compound 48]	> 5	
> 10	CC(=O)N1CCC(Nc2cc(C(=O)NC[C@H](O)CN3CCCc4ccccc4C3)ncn2)CC1 [compound 50]	> 5	
> 10	O=C(NC[C@H](O)CN1CCCCc2ccccc21)c1cc(NC2COC2)ncn1 [compound 45]	> 5	
1 to 10	CC(=O)N1CCC(Nc2cc(C(=O)NC[C@H](O)CN3CCCCc4ccccc43)ncn2)CC1 [compound 47]	> 5	

Continued, compound first:

Compound	IC50 [1] [µM]	EC50 ([2]; Homo sapiens, 120 h) [µM]	EC50 [2] [µM]
CC(=O)N1CCC(Nc2cc(C(=O)NC[C@H](O)CN3Cc4ccccc4C3)ccn2)CC1 [compound 40]	< 0.1	0.101 to 1	
CN(C)S(=O)(=O)c1ccccc1OCC(=O)NCC(O)CN1Cc2ccccc2C1 (centres unmarked) [compound 15, 2-(2-(N,N-dimethylsulfamoyl)phenoxy)-N-(2-hydroxy-3-(isoindolin-2-yl)propyl)acetamide]	< 0.1	1 to 10	
O=C(CCc1nc2ccccc2[nH]1)NCC(O)CN1Cc2ccccc2C1 (centres unmarked) [compound 37]	0.101 to 1	> 20	
O=C(COc1ccccc1-c1cc[nH]n1)NCC(O)CN1Cc2ccccc2C1 (centres unmarked) [compound 7]	0.101 to 1	> 20	
O=C(NC[C@H](O)CN1Cc2ccccc2C1)c1cc(NC2COC2)nc(N2CCOCC2)n1 [compound 38]	< 0.1	1 to 10	
O=C(NC[C@H](O)CN1Cc2ccccc2C1)c1cc(NC2COC2)nc(C(F)(F)F)n1 [compound 36]	0.101 to 1	10 to 50	
N-(2-hydroxy-3-(isoindolin-2-yl)propyl)-2-((4-methyl-3,4-dihydro-2H-benzo[b][1,4]oxazin-5-yl)oxy)acetamide [compound 10]	0.101 to 1		> 20
O=C(NC[C@H](O)CN1CCc2ccccc21)c1cc(NC2COC2)ncn1 [compound 42]	> 10	> 5	
O=C(COc1cccc2cccnc12)NCC(O)CN1Cc2ccccc2C1 (centres unmarked) [compound 19, N-(2-hydroxy-3-(isoindolin-2-yl)propyl)-2-(quinolin-8-yloxy)acetamide]	0.101 to 1	> 20	
C[C@@H](Oc1cccc2cccnc12)C(=O)NC[C@H](O)CN1Cc2ccccc2C1 [compound 5, (R)—N—((S)-2-hydroxy-3-(isoindolin-2-yl)propyl)-2-(quinolin-8-yloxy)propanamide]	< 0.1	1 to 10	
O=C(NCC(O)CN1Cc2ccccc2C1)c1cccc(-c2ccccn2)c1 (centres unmarked) [compound 13, N-(2-hydroxy-3-(isoindolin-2-yl)propyl)-3-(pyridin-2-yl)benzamide]	0.101 to 1	> 20	
Cc1nc(NC2COC2)cc(C(=O)NC[C@H](O)CN2Cc3ccccc3C2)n1 [compound 35]	0.101 to 1	> 20	
O=C(NC[C@H](O)CN1Cc2ccccc2C1)c1cc(NC2CCOCC2)ncn1 [compound 29]	< 0.1	1 to 10	
O=C(NC[C@H](O)CN1Cc2ccccc2C1)c1cccc(NC2CCOCC2)c1 [compound 28]	< 0.1	10 to 50	
CC(=O)N1CCC(Nc2cc(C(=O)NC[C@H](O)CN3CCc4ccccc43)ncn2)CC1 [compound 43]	> 10	> 5	

— patent publication US10118918B2, “PRMT5 inhibitors and uses thereof” (Epizyme, Inc., priority 2012, dated 2018)
